Our source for the IC50 values is patent US20260102383A1, “LPAR1 Inhibitors” (AbbVie Inc., priority 2024, published 2026).

For this assay, the target named is T1, human LPAR1 (Homo sapiens, UniProt Q92633).
T1 construct: host or cells: TangoEDG2-bla U2OS cells
Put plainly: Arrestin assay (Arrestin Reporter EDG2-bla U2OS), inhibition of LPA-stimulated signal. Particulars: TangoEDG2-bla U2OS cells expressing human LPAR1, 0.25 μM LPA. It is filed as cell-based. As to the method: The inhibitory activity of compounds 15, 62, 77, 84 and 169 against LPAR1 was measured using an Arrestin assay in U2OS cells expressing human LPAR1.
FreeStyle media was warmed in a 37° C. water bath. Cryo-preserved vial(s) of TangoEDG2-bla U2OS cells were rapidly thawed in a 37° C. water bath. The thawed cells were added to FreeStyle media and cells were pelleted at 300×g for 5 minutes. The supernatant was aspirated, and cells were resuspended in FreeStyle media. Cell density was adjusted to 0.25×10^6 cells/mL. Cells (1×10^4 in 40 μL) were added to each well of Greiner 384 well black cell plate(s). Cell plate(s) were placed in a humidified 37° C./5% CO2 incubator for 18-20 hours. Dilutions of test compound were prepared at 6× final concentration; 12-point, 3-fold dilutions using HH Buffer (1×HBSS plus 20 mM HEPES). The 6× test compound was then added to the cell plate(s) at 10 μL/well. The final concentration ranged from 10 μM to 0.00006 μM. Cell plate(s) were incubated in a humidified 37° C./5% CO2 incubator for 1 hour. During the incubation, 6×LPA was prepared at 1.5 μM in 0.1% BSA HH Buffer. After the 1-hour incubation of test compound with cells, the LPA was added to the cell plate(s) at 10 μL/well (final LPA concentration of 0.25 μM). Cell plate(s) were returned to a humidified 37° C./5% CO2 incubator for 3 hours. The Development solution was made up per the LiveBLAzerFRET B/G kit protocol. The Development solution was added to the cell plate(s) at 10 μL/well. Cell plates were incubated in the dark at room temperature for 2 hours. Plate(s) were read on an Envision Plate Reader (Perkin Elmer) to read fluorescence; excitation at 409 nm with emission at 460 nm and 530 nm. Raw Data for analysis is the ratio of emission at 460 nm divided by emission 530 nm. The formula used to determine % Inhibition is as follows (1−(Raw Data−Low Average)/(High Average−Low Average))*100. Percent Inhibition was plotted to determine IC50 value with GraphPad Prism 9.5.0 software using Variable slope 4-parameter curve fit analysis.
Additional compounds of the present disclosure were synthesized in a manner similar to the compounds described above and understood by a person of ordinary skill in the art. The inhibitory activity of the compounds of the present disclosure against LPAR1 was measured using the above-referenced Arrestin Assay protocol.

The mark [1] stands for this setting: read-out: Arrestin Reporter EDG2-bla U2OS Human Merged IC50.

SMILES strings stand for the structures. Read-outs that look alike come from different tables or passages of the source.

T1 sequence (Q92633 whole entry): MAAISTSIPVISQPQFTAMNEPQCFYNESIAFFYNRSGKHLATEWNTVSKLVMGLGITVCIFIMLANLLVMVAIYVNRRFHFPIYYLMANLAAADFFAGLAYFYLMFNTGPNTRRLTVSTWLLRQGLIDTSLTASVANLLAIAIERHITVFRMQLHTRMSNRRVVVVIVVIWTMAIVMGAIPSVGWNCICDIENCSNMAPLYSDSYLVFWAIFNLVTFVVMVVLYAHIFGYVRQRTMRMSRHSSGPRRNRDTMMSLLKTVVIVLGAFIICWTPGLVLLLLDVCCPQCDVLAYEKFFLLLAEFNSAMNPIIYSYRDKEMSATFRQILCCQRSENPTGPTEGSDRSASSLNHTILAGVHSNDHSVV

The term IC50 denotes the midpoint of a concentration-inhibition curve. As to `CC(C)c1ccnn1C1(C(=O)Nc2ccc(Cl)cc2OC(F)F)CCN(CC2(C(=O)O)CCN(C(=O)C34CC(C(C)C)(C3)C4)CC2)CC1` [Compound 57, 4-[[4-[[4-chloro-2-(difluoromethoxy)phenyl]carbamoyl]-4-(5-isopropylpyrazol-1-yl)-1-piperidyl]methyl]-1-(3-isopropylbicyclo[1.1.1]pentane-1-carbonyl)piperidine-4-carboxylic acid], the IC50 under setting [1] amounted to 6.83 nM.

As for `CCOCC1(C(=O)N2CCC(CN3CCC(C(=O)Nc4ccc(Cl)cc4OC(F)F)(n4nccc4C(C)C)CC3)(C(=O)O)CC2)CC1` [Compound 85, 4-[[4-[[4-chloro-2-(difluoromethoxy)phenyl]carbamoyl]-4-(5-isopropylpyrazol-1-yl)-1-piperidyl]methyl]-1-[1-(ethoxymethyl)cyclopropanecarbonyl] piperidine-4-carboxylic acid], under setting [1], the half-maximal inhibitory concentration (IC50) turned out to be 53.7 nM.

With `CC(C)c1ccnn1C1(C(=O)Nc2ccc(Cl)cc2OC(F)F)CCN(CC2(C(=O)O)CCN(C(=O)O[C@H]3CCOC3)CC2)CC1` [Compound 109], the half-maximal inhibitory concentration (IC50) under setting [1] amounted to 94.9 nM.

For `CC(C)c1ccnn1C1(C(=O)Nc2ccc(Cl)cc2OC(F)F)CCN([C@H]2C[C@@](C)(C(=O)O)C2)CC1` [Compound 77, (1s,38)-3-[4-[[4-chloro-2-(difluoromethoxy)phenyl]carbamoyl]-4-(5-isopropylpyrazol-1-yl)-1-piperidyl]-1-methyl-cyclobutanecarboxylic acid], the half-inhibitory concentration (IC50) (read-out: Arrestin Reporter EDG2-bla U2OS Human IC50) worked out at 43.6 nM.

Turning to `CC(C)c1ccnn1C1(C(=O)Nc2ccc(Cl)cc2OC(F)F)CCN(C[C@H](C(=O)O)[C@@H]2CCOC2)CC1` (single isomer, unassigned) [Compound 152], under setting [1], the IC50 was 41.1 nM.

Take `CC(C)c1c(Cl)cnn1C1(C(=O)Nc2ccc(Cl)cc2OC(F)F)CCN(C[C@H](C(=O)O)C2CCOCC2)CC1` (single isomer, unassigned) [Compound 198]: the IC50 under setting [1] was found to be 31.2 nM.

As to `CC(C)c1ccnn1C1(C(=O)Nc2ccc(Cl)cc2OC(F)F)CCN(CC2(C(=O)O)CCN(C(=O)C34CC(F)(C3)C4)CC2)CC1` [Compound 72, 4-[[4-[[4-chloro-2-(difluoromethoxy)phenyl]carbamoyl]-4-(5-isopropylpyrazol-1-yl)-1-piperidyl]methyl]-1-(3-fluorobicyclo[1.1.1]pentane-1-carbonyl)piperidine-4-carboxylic acid], the half-inhibitory concentration (IC50) under setting [1] was found to be 18.8 nM.

On to `CC(C)c1ccnn1C1(C(=O)Nc2ccc(Cl)cc2OC(F)F)CCN(C[C@@H](C(=O)O)C2CCOCC2)CC1` (single isomer, unassigned) [Compound 14, (2.5)-3-[4-[[4-chloro-2-(difluoromethoxy)phenyl]carbamoyl]-4-(5-isopropylpyrazol-1-yl)-1-piperidyl]-2-tetrahydropyran-4-yl-propanoic acid], for which, under setting [1], the IC50 came to 33.9 nM.

Take `CC(C)c1ccnn1C1(C(=O)Nc2ccc(Cl)cc2OC(F)F)CCN(CC2(C(=O)O)CCN(C(=O)C34CC(C3)C4)CC2)CC1` [Compound 69, 1-(bicyclo[1.1.1]pentane-1-carbonyl)-4-[[4-[[4-chloro-2-(difluoromethoxy)phenyl]carbamoyl]-4-(5-isopropylpyrazol-1-yl)-1-piperidyl]methyl]piperidine-4-carboxylic acid]: the 50% inhibitory concentration (IC50) under setting [1] came to 14.8 nM.

As for `CC(C)c1ccnn1C1(C(=O)Nc2ccc(Cl)cc2OC(F)F)CCN(CC2(C(=O)O)CCCCC2)CC1` [Compound 42, 1-[[4-[[4-chloro-2-(difluoromethoxy)phenyl]carbamoyl]-4-(5-isopropylpyrazol-1-yl)-1-piperidyl]methyl]cyclohexanecarboxylic acid], the IC50 under setting [1] stood at 19.1 nM.

As to `CC(C)c1ccnn1C1(C(=O)Nc2ccc(Cl)cc2OC(F)F)CCN([C@H]2C[C@@](C(=O)O)(C(F)(F)F)C2)CC1` [Compound 107, (1s,3s)-3-[4-[[4-chloro-2-(difluoromethoxy)phenyl]carbamoyl]-4-(5-isopropylpyrazol-1-yl)-1-piperidyl]-1-(trifluoromethyl) cyclobutanecarboxylic acid], the 50% inhibitory concentration (IC50) under setting [1] was found to be 40.1 nM.

Turning to `COCCC(=O)N1CCC(CN2CCC(C(=O)Nc3ccc(Cl)cc3OC(F)F)(n3nccc3C(C)C)CC2)(C(=O)O)CC1` [Compound 54, 4-[[4-[[4-chloro-2-(difluoromethoxy)phenyl]carbamoyl]-4-(5-isopropylpyrazol-1-yl)-1-piperidyl]methyl]-1-(3-methoxypropanoyl) piperidine-4-carboxylic acid], under setting [1], the IC50 was found to be 56.5 nM.

In the case of `CC(C)c1ccnn1C1(C(=O)Nc2ccc(Cl)cc2OC(F)F)CCN(CC2(C(=O)O)CCN(C(=O)C34CC(C)(C3)C4)CC2)CC1` [Compound 79, 4-[[4-[[4-chloro-2-(difluoromethoxy)phenyl]carbamoyl]-4-(5-isopropylpyrazol-1-yl)-1-piperidyl]methyl]-1-(3-metbylbicyclo[1.1.1]pentane-1-carbonyl)piperidine-4-carboxylic acid], under setting [1], the IC50 is 15.7 nM.

Regarding `CC(C)c1ccnn1C1(C(=O)Nc2ccc(Cl)cc2OC(F)F)CCN(C[C@H](CN2CCOCC2)C(=O)O)CC1` [Compound 239, (2R)-2-[[4-[[4-chloro-2-(difluoromethoxy)phenyl]carbamoyl]-4-(5-isopropylpyrazol-1-yl)-1-piperidyl]methyl]-3-morpholino-propanoic acid], under setting [1], the concentration for half-maximal inhibition (IC50) came out at 62.3 nM.

With `CC(=O)N1CCC(CN2CCC(C(=O)Nc3ccc(Cl)cc3OC(F)F)(n3nccc3C(C)C)CC2)(C(=O)O)CC1` [Compound 5, 1-acetyl-4-[[4-[[4-chloro-2-(difluoromethoxy)phenyl]carbamoyl]-4-(5-isopropylpyrazol-1-yl)-1-piperidyl]methyl]piperidine-4-carboxylic acid], the IC50 under setting [1] amounted to 87.3 nM.

Turning to `C=C(CN1CCC(C(=O)Nc2ccc(Cl)cc2OC(F)F)(n2nccc2C(C)C)CC1)C(=O)O` [Compound 143, 2-[[4-[[4-chloro-2-(difluoromethoxy)phenyl]carbamoyl]-4-(5-isopropylpyrazol-1-yl)-1-piperidyl]methyl]prop-2-enoic acid], the concentration for half-maximal inhibition (IC50) under setting [1] was 32.2 nM.

As to `CC(C)c1ccnn1C1(C(=O)Nc2ccc(Cl)cc2OC(F)F)CCN(C[C@H](C)C(=O)O)CC1` [Compound 87, (2S)-3-[4-[[4-chloro-2-(difluoromethoxy)phenyl]carbamoyl]-4-(5-isopropylpyrazol-1-yl)-1-piperidyl]-2-methyl-propanoic acid], the half-inhibitory concentration (IC50) under setting [1] was 32.3 nM.

With `CC1CCc2cnn(C3(C(=O)Nc4ccc(Cl)cc4OC(F)F)CCN([C@H]4C[C@@H](C(=O)O)C4)CC3)c21` (stereo partly shown) [Compound 104, (1s,3s)-3-[4-[[4-chloro-2-(difluoromethoxy)phenyl]carbamoyl]-4-(6-methyl-5,6-dibydro-4H-cyclopenta[c]pyrazol-1-yl)-1-piperidyl] cyclobutanecarboxylic acid], the IC50 under setting [1] amounted to 44.7 nM.

Turning to `COCC1(C(=O)N2CCC(CN3CCC(C(=O)Nc4ccc(Cl)cc4OC(F)F)(n4nccc4C(C)C)CC3)(C(=O)O)CC2)CCC1` [Compound 59, 4-[[4-[[4-chloro-2-(difluoromethoxy)phenyl]carbamoyl]-4-(5-isopropylpyrazol-1-yl)-1-piperidyl]methyl]-1-[1-(methoxymethyl)cyclobutanecarbonyl] piperidine-4-carboxylic acid], the concentration for half-maximal inhibition (IC50) under setting [1] stood at 26.4 nM.
